The values that follow come from paper PMC7481290, “Halogenation as a tool to tune antimicrobial activity of peptoids” (Scientific Reports, 2020).

The subject of test [1] is Methicillin-resistant S. aureus USA 300. The class given is cell-based, Staphylococcus aureus. To be noted: USA 300, 18 h. On the procedure:
(§1) Bacterial growth inhibition was determined by using broth microdilution according to the Clinical Laboratory Standards Institute[43]. The antibacterial activity of peptoids was tested against S. aureus ATCC 25923, ATCC29213, and methicillin resistant S. aureus USA 300, methicillin resistant S. epidermidis ATCC 51625, a biofilm producing methicillin resistant S. epidermidis ET-024[44], P. aeruginosa Pa01 (H103), and E. coli ATCC 25922. Bacteria, grown on agar plates for 18 h at 37 °C, were diluted to ∼1 × 10^8 CFU/mL in Mueller‐Hinton Broth II (MHB II). Twofold serial dilutions of peptoids in MHB II were inoculated with bacteria to achieve a final concentration of 5 × 10^5 CFU/mL in polypropylene 96 U‐well microtiter plates (Corning 3,897; ThermoFisher Scientific, Roskilde), followed by incubation at 37 °C in ambient air for 18 h. The MIC values were determined as the lowest concentration showing no visible bacterial growth. Experiments were performed twice (in technical triplicates) on 2 different days.

Another test deals with S. aureus ATCC 25923. It is filed as cell-based, Staphylococcus aureus. To be noted: ATCC 25923, 18 h. As to the method: as §1
In another test the test system is S. aureus ATCC 29213. The class given is cell-based, Staphylococcus aureus. The settings on record: ATCC 29213, 18 h. As to the method: as §1
Test [2] deals with Methicillin-resistant S. epidermidis ATCC 51625. It is filed as cell-based, Staphylococcus epidermidis. To be noted: ATCC 51625, 18 h. On the procedure: as §1
Test [3] has as its system Methicillin-resistant S. epidermidis ET-024. It is filed as cell-based, Staphylococcus epidermidis. The settings on record: Methicillin-resistant ET-024, 18 h. As to the method: as §1
In another test the test system is E. coli ATCC 25922. It is filed as cell-based, Escherichia coli. To be noted: ATCC 25922, 18 h. On the procedure:
as §1

The test system of test [4] is P. aeruginosa PA01 (H103). The class given is cell-based, Pseudomonas aeruginosa. To be noted: H103, 18 h. As to the method:
as §1

Values after ≈ are worked out from the molar mass of the structure shown. Non-standard residues stand in square brackets, D forms with d. Residues, ends and D or L forms follow the SMILES beside them. Gly(Nα-4-Cl-benzyl) = O=C(O)CNCc1ccc(Cl)cc1; N(4-Br-benzyl)Gly = O=C(O)CNCc1ccc(Br)cc1; N(4-F-Bzl)Gly = O=C(O)CNCc1ccc(F)cc1; NBzl(4-I)Gly = O=C(O)CNCc1ccc(I)cc1; Nphe = O=C(O)CNCc1ccccc1; Nlys = NCCCCNCC(=O)O

As for `NCCCCNCC(=O)N(CC(=O)N(CCCCN)CC(=O)N(CC(=O)N(CCCCN)CC(=O)N(CC(=O)N(CCCCN)CC(=O)N(CC(N)=O)Cc1ccc(F)cc1)Cc1ccccc1)Cc1ccc(F)cc1)Cc1ccccc1` [Compound 15] (H-[Nlys][Nphe][Nlys][N(4-F-Bzl)Gly][Nlys][Nphe][Nlys][N(4-F-Bzl)Gly]-NH2), the “Minimal inhibitory concentration MRSA^c” value in test [1] was greater than 512 µg/mL. For the same molecule, the “Minimal inhibitory concentration SA^a” value in the test with S. aureus ATCC 25923 is greater than 512 µg/mL. Besides, the “Minimal inhibitory concentration SA^b” value in the test on S. aureus ATCC 29213 is greater than 512 µg/mL. Besides, the “Minimal inhibitory concentration MRSE^e” value in test [2] was determined as 128 µg/mL (≈ 111 µM). Further, in test [3], the “Minimal inhibitory concentration MRSE^d” value was 128 µg/mL (≈ 111 µM). Also, the “Minimal inhibitory concentration EC^f” value in the test on E. coli ATCC 25922 stood at 512 µg/mL (≈ 444 µM). In test [4], the “Minimal inhibitory concentration PA^g” value was 512 µg/mL (≈ 444 µM).

As to `NCCCCNCC(=O)N(CC(=O)N(CCCCN)CC(=O)N(CC(=O)N(CCCCN)CC(=O)N(CC(=O)N(CCCCN)CC(=O)N(CC(N)=O)Cc1ccc(Cl)cc1)Cc1ccccc1)Cc1ccc(Cl)cc1)Cc1ccccc1` [Compound 16] (H-[Nlys][Nphe][Nlys][Gly(Nα-4-Cl-benzyl)][Nlys][Nphe][Nlys][Gly(Nα-4-Cl-benzyl)]-NH2), the “Minimal inhibitory concentration MRSA^c” value in test [1] was determined as 16 µg/mL (≈ 13.5 µM). Also, in the test with S. aureus ATCC 25923, the “Minimal inhibitory concentration SA^a” value turned out to be 16 µg/mL (≈ 13.5 µM). Also, in the test on S. aureus ATCC 29213, the “Minimal inhibitory concentration SA^b” value was 64 µg/mL (≈ 53.9 µM). Besides, the “Minimal inhibitory concentration MRSE^e” value in test [2] amounted to 8 µg/mL (≈ 6.74 µM). In test [3], the “Minimal inhibitory concentration MRSE^d” value amounted to 8 µg/mL (≈ 6.74 µM). Further, in the test with E. coli ATCC 25922, the “Minimal inhibitory concentration EC^f” value stood at 256 µg/mL (≈ 216 µM). Moreover, the “Minimal inhibitory concentration PA^g” value in test [4] came to 512 µg/mL (≈ 431 µM).

On to `NCCCCNCC(=O)N(CC(=O)N(CCCCN)CC(=O)N(CC(=O)N(CCCCN)CC(=O)N(CC(=O)N(CCCCN)CC(=O)N(CC(N)=O)Cc1ccc(Br)cc1)Cc1ccccc1)Cc1ccc(Br)cc1)Cc1ccccc1` [Compound 17] (H-[Nlys][Nphe][Nlys][N(4-Br-benzyl)Gly][Nlys][Nphe][Nlys][N(4-Br-benzyl)Gly]-NH2), for which the “Minimal inhibitory concentration MRSA^c” value in test [1] amounted to 32 µg/mL (≈ 25.1 µM). Further, the “Minimal inhibitory concentration SA^a” value in the test on S. aureus ATCC 25923 stood at 16 µg/mL (≈ 12.5 µM). Moreover, the “Minimal inhibitory concentration SA^b” value in the test with S. aureus ATCC 29213 was found to be 32 µg/mL (≈ 25.1 µM). The “Minimal inhibitory concentration MRSE^e” value in test [2] worked out at 4 µg/mL (≈ 3.13 µM). For the same molecule, the “Minimal inhibitory concentration MRSE^d” value in test [3] was 4 µg/mL (≈ 3.13 µM). Moreover, the “Minimal inhibitory concentration EC^f” value in the test with E. coli ATCC 25922 amounted to 256 µg/mL (≈ 201 µM). Also, in test [4], the “Minimal inhibitory concentration PA^g” value was 512 µg/mL (≈ 401 µM).

With `NCCCCNCC(=O)N(CC(=O)N(CCCCN)CC(=O)N(CC(=O)N(CCCCN)CC(=O)N(CC(=O)N(CCCCN)CC(=O)N(CC(N)=O)Cc1ccc(I)cc1)Cc1ccccc1)Cc1ccc(I)cc1)Cc1ccccc1` [Compound 18] (H-[Nlys][Nphe][Nlys][NBzl(4-I)Gly][Nlys][Nphe][Nlys][NBzl(4-I)Gly]-NH2), the “Minimal inhibitory concentration MRSA^c” value in test [1] amounted to 16 µg/mL (≈ 11.7 µM). Also, the “Minimal inhibitory concentration SA^a” value with S. aureus ATCC 25923 is 32 µg/mL (≈ 23.4 µM). Moreover, the “Minimal inhibitory concentration SA^b” value in the test with S. aureus ATCC 29213 is 32 µg/mL (≈ 23.4 µM). Further, in test [2], the “Minimal inhibitory concentration MRSE^e” value was 4 µg/mL (≈ 2.92 µM). In addition, the “Minimal inhibitory concentration MRSE^d” value in test [3] came to 8 µg/mL (≈ 5.84 µM). For the same molecule, the “Minimal inhibitory concentration EC^f” value in the test with E. coli ATCC 25922 turned out to be 256 µg/mL (≈ 187 µM). Further, the “Minimal inhibitory concentration PA^g” value in test [4] is greater than 512 µg/mL.

Take `NCCCCNCC(=O)N(CC(=O)N(CCCCN)CC(=O)N(CC(=O)N(CCCCN)CC(=O)N(CC(=O)N(CCCCN)CC(=O)N(CC(=O)N(CCCCN)CC(=O)N(CC(=O)N(CCCCN)CC(=O)N(CC(N)=O)Cc1ccc(F)cc1)Cc1ccc(F)cc1)Cc1ccc(F)cc1)Cc1ccc(F)cc1)Cc1ccc(F)cc1)Cc1ccc(F)cc1` [Compound 29] (H-[Nlys][N(4-F-Bzl)Gly][Nlys][N(4-F-Bzl)Gly][Nlys][N(4-F-Bzl)Gly][Nlys][N(4-F-Bzl)Gly][Nlys][N(4-F-Bzl)Gly][Nlys][N(4-F-Bzl)Gly]-NH2): in test [1], the “Minimal inhibitory concentration MRSA^c” value came to 16 µg/mL (≈ 9 µM). Besides, the “Minimal inhibitory concentration SA^a” value with S. aureus ATCC 25923 was found to be 32 µg/mL (≈ 18 µM). For the same molecule, the “Minimal inhibitory concentration SA^b” value in the test with S. aureus ATCC 29213 came to 32 µg/mL (≈ 18 µM). Besides, the “Minimal inhibitory concentration MRSE^e” value in test [2] was 4 µg/mL (≈ 2.25 µM). Also, the “Minimal inhibitory concentration MRSE^d” value in test [3] was 4 to 8 µg/mL. The “Minimal inhibitory concentration EC^f” value in the test with E. coli ATCC 25922 came out at 256 µg/mL (≈ 144 µM). In test [4], the “Minimal inhibitory concentration PA^g” value was found to be 64 µg/mL (≈ 36 µM).
